Here are results for 7 compounds from US12435072B2, “Compounds” (Vicore Pharma AB, priority 2019, dated 2025).

Data set [1] concerns the target T1, human recombinant AT2 receptor (Homo sapiens, UniProt P50052).
T1 construct: purchased Eurofins ITEM26
T1 sequence (P50052 1-363): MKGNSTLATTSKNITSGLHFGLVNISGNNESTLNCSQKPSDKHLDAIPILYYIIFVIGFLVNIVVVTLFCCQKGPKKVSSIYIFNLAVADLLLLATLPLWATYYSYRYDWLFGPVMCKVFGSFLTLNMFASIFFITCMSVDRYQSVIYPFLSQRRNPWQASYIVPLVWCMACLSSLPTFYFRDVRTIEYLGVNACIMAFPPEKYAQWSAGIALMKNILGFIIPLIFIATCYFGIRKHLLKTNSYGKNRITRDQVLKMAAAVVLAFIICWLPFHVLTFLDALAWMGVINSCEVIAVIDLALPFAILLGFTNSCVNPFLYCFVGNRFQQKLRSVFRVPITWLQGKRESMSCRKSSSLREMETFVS
Put plainly: Binding to AT2 receptor, radiometric scintillation assay (Eurofins). The note with it: ligand 125I CGP 42112A, tested at 1, 10, 100 and 1000 nM. How it is done: (§1) Compounds were evaluated for binding to the human recombinant AT2 and AT1 receptor according to Eurofins protocol ITEM26 and ITEM24 using a radiometric scintillation assay.

The next data set concerns the target T2, CYP2C8 (Homo sapiens, UniProt P10632).
T2 construct: incubated with human liver microsomes; tissue Eurofins ITEMG232; host or cells: human liver microsomes
T2 sequence (P10632 1-490): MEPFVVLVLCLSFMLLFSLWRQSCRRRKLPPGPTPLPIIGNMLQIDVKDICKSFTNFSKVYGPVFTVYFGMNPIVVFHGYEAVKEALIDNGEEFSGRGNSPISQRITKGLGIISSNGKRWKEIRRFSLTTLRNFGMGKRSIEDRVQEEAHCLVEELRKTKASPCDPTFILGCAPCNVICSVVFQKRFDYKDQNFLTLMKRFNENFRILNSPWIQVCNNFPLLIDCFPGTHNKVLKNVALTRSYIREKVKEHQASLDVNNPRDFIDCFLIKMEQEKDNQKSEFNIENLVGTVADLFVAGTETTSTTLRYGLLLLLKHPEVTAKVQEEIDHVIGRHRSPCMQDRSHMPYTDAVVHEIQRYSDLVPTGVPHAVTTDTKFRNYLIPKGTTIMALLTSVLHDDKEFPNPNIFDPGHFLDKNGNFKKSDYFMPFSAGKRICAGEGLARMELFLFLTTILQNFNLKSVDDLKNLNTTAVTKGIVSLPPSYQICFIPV
Nature of the data set: CYP inhibition in human liver microsomes, CYP2C8. The class given is in vitro ADME. The note with it: probe paclitaxel and amodiaquine, substrate paclitaxel and amodiaquine, read-out: CYP2C8 Inh %. The procedure:
(§2) The following substrates were used: CYP1A phenacetin, CYP2B6 bupropion, CYP2C8 paclitaxel and amodiaquine, CYP2C9 diclofenac, CYP2C19 omeprazole, CYP2D6 dextromethorphan, CYP3A midazolam and testosterone. At the end of the incubation, the formation of metabolite was monitored by HPLC-MS/MS as the peak area response.
For orientation: Microsomes from liver hold many membrane-bound enzymes, among them those of drug oxidation.

A further data set addresses CYP2C9 (Homo sapiens, UniProt P11712). Put plainly: CYP inhibition in human liver microsomes, CYP2C9. The class given is in vitro ADME. Also on record: incubated with human liver microsomes; tissue Eurofins ITEMG232; host or cells: human liver microsomes. The conditions noted are these: probe diclofenac, substrate diclofenac, read-out: CYP2C9 Inh %. The procedure:
as §2

For the next data set, the system named is CYP3A4&5. Nature of the data set: CYP inhibition in human liver microsomes, CYP3A4&5 (testosterone). It is filed as in vitro ADME. The conditions noted are these: probe testosterone, substrate testosterone, read-out: CYP3A4&5 testosterone Inh %. The procedure:
as §2

In another data set the target is T3, CYP2C19 (Homo sapiens, UniProt P33261).
T3 construct: incubated with human liver microsomes; tissue Eurofins ITEMG232; host or cells: human liver microsomes
T3 sequence (P33261 whole entry): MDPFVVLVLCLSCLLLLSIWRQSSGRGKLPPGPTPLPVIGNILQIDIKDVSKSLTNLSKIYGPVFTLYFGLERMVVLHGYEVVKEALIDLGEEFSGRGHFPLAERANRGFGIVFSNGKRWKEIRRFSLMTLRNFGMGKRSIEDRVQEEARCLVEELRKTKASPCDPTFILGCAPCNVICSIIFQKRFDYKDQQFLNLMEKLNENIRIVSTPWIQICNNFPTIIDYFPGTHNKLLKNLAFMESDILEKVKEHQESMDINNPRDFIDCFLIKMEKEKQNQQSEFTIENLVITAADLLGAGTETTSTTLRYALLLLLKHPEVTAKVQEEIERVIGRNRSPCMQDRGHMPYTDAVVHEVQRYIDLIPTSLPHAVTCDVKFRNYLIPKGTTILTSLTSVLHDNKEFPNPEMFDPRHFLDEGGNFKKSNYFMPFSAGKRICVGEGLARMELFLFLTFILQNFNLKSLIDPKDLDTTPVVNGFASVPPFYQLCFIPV
Put plainly: CYP inhibition in human liver microsomes, CYP2C19. The conditions noted are these: probe omeprazole, substrate omeprazole, read-out: CYP2C19 Inh %. The class given is in vitro ADME. How it is done: as §2

The next data set concerns the target T4, CYP2D6 (Homo sapiens, UniProt P10635).
T4 construct: incubated with human liver microsomes; tissue Eurofins ITEMG232; host or cells: human liver microsomes
Nature of the data set: CYP inhibition in human liver microsomes, CYP2D6. The class given is in vitro ADME. The conditions noted are these: probe dextromethorphan, substrate dextromethorphan, read-out: CYP2D6 Inh %. The procedure:
as §2

The next data set deals with T5, CYP1A (Homo sapiens, UniProt P05177).
T5 construct: incubated with human liver microsomes; tissue Eurofins ITEMG232; host or cells: human liver microsomes
T5 sequence (P05177 1-516): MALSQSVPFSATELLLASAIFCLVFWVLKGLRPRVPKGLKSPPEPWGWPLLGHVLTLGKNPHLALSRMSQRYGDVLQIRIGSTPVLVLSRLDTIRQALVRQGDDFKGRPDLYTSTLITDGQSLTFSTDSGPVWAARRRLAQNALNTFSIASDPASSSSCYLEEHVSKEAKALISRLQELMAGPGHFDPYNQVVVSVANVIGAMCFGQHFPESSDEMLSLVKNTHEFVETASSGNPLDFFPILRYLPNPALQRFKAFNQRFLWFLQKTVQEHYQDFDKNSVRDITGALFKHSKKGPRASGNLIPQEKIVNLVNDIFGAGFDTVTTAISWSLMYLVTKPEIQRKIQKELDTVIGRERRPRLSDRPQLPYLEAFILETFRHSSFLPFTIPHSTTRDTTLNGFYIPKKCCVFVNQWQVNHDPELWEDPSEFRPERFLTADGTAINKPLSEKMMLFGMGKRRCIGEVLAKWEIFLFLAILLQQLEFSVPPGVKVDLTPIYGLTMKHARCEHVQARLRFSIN
Put plainly: CYP inhibition in human liver microsomes, CYP1A. The class given is in vitro ADME. The conditions noted are these: probe phenacetin, substrate phenacetin, read-out: CYP1A Inh %. The procedure:
as §2

For the next data set, the target named is CYP3A4 (Homo sapiens, UniProt P08684). Put plainly: CYP inhibition in human liver microsomes, CYP3A4 (midazolam). It is filed as in vitro ADME. Also on record: incubated with human liver microsomes; tissue Eurofins ITEMG232; host or cells: human liver microsomes. The conditions noted are these: probe midazolam, substrate midazolam, read-out: CYP3A4 midazolam Inh %. The procedure: as §2
CYP3A4, sequence (P08684 whole entry): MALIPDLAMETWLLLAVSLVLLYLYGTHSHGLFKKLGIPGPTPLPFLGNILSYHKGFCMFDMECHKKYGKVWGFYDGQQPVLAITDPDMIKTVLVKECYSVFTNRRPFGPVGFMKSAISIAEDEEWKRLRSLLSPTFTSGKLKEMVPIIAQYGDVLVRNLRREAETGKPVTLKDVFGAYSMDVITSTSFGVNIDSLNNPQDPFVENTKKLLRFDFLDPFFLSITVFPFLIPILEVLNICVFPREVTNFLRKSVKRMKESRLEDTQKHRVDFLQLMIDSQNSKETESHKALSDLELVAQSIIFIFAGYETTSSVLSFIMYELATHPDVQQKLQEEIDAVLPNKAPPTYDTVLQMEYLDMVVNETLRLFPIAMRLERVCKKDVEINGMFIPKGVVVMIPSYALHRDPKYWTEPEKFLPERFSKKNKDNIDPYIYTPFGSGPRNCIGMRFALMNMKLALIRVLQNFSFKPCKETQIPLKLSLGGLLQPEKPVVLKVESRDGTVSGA

Data set [2] concerns the target T6, human recombinant AT1 receptor (Homo sapiens, UniProt P30556).
T6 construct: purchased Eurofins ITEM24
T6 sequence (P30556 1-359): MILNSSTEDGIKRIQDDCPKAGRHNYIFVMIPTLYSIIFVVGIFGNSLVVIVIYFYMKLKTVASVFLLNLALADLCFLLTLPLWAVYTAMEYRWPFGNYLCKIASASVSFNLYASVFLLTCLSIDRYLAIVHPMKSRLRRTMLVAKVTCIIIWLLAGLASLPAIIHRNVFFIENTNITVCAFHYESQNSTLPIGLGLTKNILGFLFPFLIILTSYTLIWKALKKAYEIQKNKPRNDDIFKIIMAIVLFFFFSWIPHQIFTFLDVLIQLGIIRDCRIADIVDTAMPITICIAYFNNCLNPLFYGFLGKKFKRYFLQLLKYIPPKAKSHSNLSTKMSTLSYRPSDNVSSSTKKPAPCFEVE
Put plainly: Binding to AT1 receptor, radiometric scintillation assay (Eurofins). The note with it: ligand 125I(sar1,Ile8)-AT-II, tested at 1 and 10 μM. How it is done:
as §1

The target in the next data set is T7, CYP2B6 (Homo sapiens, UniProt P20813).
T7 construct: incubated with human liver microsomes; tissue Eurofins ITEMG232; host or cells: human liver microsomes
T7 sequence (P20813 1-491): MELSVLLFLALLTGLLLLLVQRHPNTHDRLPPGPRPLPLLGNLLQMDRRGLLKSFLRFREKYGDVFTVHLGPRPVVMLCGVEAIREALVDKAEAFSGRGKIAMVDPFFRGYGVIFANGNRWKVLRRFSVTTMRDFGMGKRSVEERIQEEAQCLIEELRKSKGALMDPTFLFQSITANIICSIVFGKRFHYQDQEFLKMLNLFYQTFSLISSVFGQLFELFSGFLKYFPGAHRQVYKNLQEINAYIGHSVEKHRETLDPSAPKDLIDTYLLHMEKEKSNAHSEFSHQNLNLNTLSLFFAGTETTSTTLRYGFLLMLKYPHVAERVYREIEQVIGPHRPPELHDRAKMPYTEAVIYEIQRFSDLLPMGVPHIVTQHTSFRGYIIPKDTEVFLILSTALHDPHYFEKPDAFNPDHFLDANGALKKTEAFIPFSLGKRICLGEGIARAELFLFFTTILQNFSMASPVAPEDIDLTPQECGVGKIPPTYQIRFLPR
Nature of the data set: CYP inhibition in human liver microsomes, CYP2B6. The conditions noted are these: probe bupropion, substrate bupropion, read-out: CYP2B6 Inh %. The class given is in vitro ADME. How it is done:
as §2

The nature of data set [3]: Metabolic stability in pooled human liver microsomes. The class given is in vitro ADME. The conditions noted are these: pooled human liver microsomes 0.5 mg/ml, 1 μM test compound, 37° C. The procedure:
Pooled human liver microsomes in PBS at a concentration of 0.5 mg/ml was incubated with or without 1 mM NADPH for 70 min at 37° C. Test compound was added after 10 minutes to a final concentration of 1 μM. Samples were withdrawn at 0, 5, 15 and 60 minutes and added to test tubes containing acetonitrile, to stop the reaction, and with terfenadine, used as internal standard. After centrifugation at 10 000×g for 5 minutes the supernatant was diluted 1:1 with 1% formic acid. Samples were separated on a reverse phase column and detected by triple quadrupole MSMS (Agilant model 6540). The concentration of the parent compound at the different time points was measured with an external standard curve using terfenadine as internal standard and the initial metabolic rate in the presence or absence of NADPH calculated.

Setting [4] is: with 1 mM NADPH, read-out: T1/2, + NaDPH.
Setting [5] is: without NADPH, read-out: T1/2, no NaDPH.

Like-named read-outs stand apart in the source and are kept apart here.

A word on the IC50: it is the concentration that gives 50% inhibition.

T4 sequence (P10635 whole entry): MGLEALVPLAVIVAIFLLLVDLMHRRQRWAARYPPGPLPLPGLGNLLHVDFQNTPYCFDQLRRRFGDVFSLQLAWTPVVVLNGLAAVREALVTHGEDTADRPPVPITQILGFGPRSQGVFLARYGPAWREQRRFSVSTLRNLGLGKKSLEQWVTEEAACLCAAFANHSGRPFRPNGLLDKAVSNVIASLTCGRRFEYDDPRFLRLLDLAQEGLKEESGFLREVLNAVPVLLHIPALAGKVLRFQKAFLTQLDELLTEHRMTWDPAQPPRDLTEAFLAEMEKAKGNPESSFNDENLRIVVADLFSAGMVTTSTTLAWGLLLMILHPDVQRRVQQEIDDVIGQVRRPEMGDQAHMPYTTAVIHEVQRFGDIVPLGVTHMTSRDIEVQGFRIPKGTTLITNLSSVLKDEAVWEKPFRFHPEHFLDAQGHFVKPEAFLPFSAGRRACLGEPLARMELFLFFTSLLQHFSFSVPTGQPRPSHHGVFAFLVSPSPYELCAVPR
CYP2C9, sequence (P11712 whole entry): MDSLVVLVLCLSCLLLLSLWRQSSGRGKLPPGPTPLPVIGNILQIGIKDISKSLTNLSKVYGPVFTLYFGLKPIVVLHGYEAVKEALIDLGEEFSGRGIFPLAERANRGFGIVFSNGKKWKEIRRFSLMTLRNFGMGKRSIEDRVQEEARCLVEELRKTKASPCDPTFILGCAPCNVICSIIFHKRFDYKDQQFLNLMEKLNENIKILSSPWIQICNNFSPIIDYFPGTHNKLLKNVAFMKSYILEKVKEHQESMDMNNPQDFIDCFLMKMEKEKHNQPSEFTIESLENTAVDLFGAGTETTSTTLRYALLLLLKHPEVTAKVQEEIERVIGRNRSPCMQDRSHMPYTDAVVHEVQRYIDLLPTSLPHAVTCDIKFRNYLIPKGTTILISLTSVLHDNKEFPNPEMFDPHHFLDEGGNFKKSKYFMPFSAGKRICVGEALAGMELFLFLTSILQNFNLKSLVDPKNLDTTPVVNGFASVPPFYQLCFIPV

For the compound `Cc1cn(Cc2ccc(-c3cc(CC(C)C)sc3S(=O)(=O)NC(=O)NCc3ccccc3)cc2)c(C)n1` [Example 10, 1-Benzyl-3-(3-{p-[(2,4-dimethyl-1H-imidazol-1-yl)methyl]phenyl}-5-isobutyl-2-thienylsulfonyl)urea], the half-inhibitory concentration (IC50) in [1] worked out at 90.6 nM; in data set [2] it was 6000 nM. Further, the inhibition at 10 µM was 48% at CYP2C8; 50% at CYP2C9; 29% in the data set on CYP3A4&5; 61% at CYP2C19; 31% on CYP2D6; -5% at CYP1A. In addition, the values for the inhibition at 10 µM on CYP3A4 and at CYP2B6 were 25% and 15%, respectively.
Turning to `Cc1nccn1Cc1ccc(-c2cc(CC(C)C)sc2S(=O)(=O)NC(=O)NCCCC(F)(F)F)cc1F` [Example 18, 3-(3-{3-Fluoro-4-[(2-methyl-1H-imidazol-1-yl)methyl]phenyl}-5-isobutyl-2-thienylsulfonyl)-1-(4,4,4-trifluorobutyl)urea], the inhibition at 10 µM on CYP2C8 came to 72%; on CYP2C9, 62%; in the data set on CYP3A4&5 it was 24%; at CYP2C19, 78%; on CYP2D6, 20%; at CYP1A it was 15%. Besides, the inhibition at 10 µM turned out to be 50% at CYP3A4 and 59% at CYP2B6. In addition, the figures for the half-life at 1 μM in data set [3] (setting [4]) and in data set [3] (setting [5]) were 30 min and more than 60 min, respectively.
For `Cc1nccn1Cc1ccc(-c2cc(CC(C)C)sc2S(=O)(=O)NC(=O)NCCC(F)(F)F)nc1` [Example 19, 3-(5-Isobutyl-3-{5-[(2-methyl-1H-imidazol-1-yl)methyl]-2-pyridyl}-2-thienylsulfonyl)-1-(3,3,3-trifluoropropyl)urea], the IC50 in data set [1] was 127 nM; in data set [2], 83000 nM.
In the same order, the values of `Cc1nccn1Cc1ncc(-c2cc(CC(C)C)sc2S(=O)(=O)NC(=O)NCc2ccccn2)cn1` [Example 22, 3-(5-Isobutyl-3-{2-[(2-methyl-1H-imidazol-1-yl)methyl]-5-pyrimidinyl}-2-thienylsulfonyl)-1-[(2-pyridyl)methyl]urea] are 16.9 nM and 51000 nM.
In the same order, the values of `Cc1nccn1Cc1ccc(-c2cc(CC(C)C)sc2S(=O)(=O)NC(=O)NCc2cc(F)cc(F)c2)nc1` [Example 23, 1-[(3,5-Difluorophenyl)methyl]-3-(5-isobutyl-3-{5-[(2-methyl-1H-imidazol-1-yl)methyl]-2-pyridyl}-2-thienylsulfonyl)urea] are 357 nM and 16000 nM.
Take `CCc1nccn1Cc1ccc(-c2cc(CC(C)C)sc2S(=O)(=O)NC(=O)NCCC(F)(F)F)cc1F.O=C(O)C(F)(F)F` [Example 30, 1-[(3-{4-[(2-ethyl-1H-imidazol-1-yl)methyl]-3-fluorophenyl}-5-(2-methylpropyl)thiophen-2-yl)sulfonyl]-3-(3,3,3-trifluoropropyl)urea trifluoroacetic acid]: the inhibition at 10 µM at CYP2C8 is 64%; at CYP2C9, 61%; in the data set on CYP3A4&5, 13%; on CYP2C19, 53%; at CYP2D6 it was 12%; at CYP1A, -1%. Moreover, the figures for the inhibition at 10 µM on CYP3A4 and at CYP2B6 were -3% and 30%, respectively. Besides, the half-life at 1 μM is 40 min in data set [3] (setting [4]) and more than 60 min in data set [3] (setting [5]).
For the compound `CC(C)Cc1cc(-c2ccc(Cn3ccnc3C(C)C)c(F)c2)c(S(=O)(=O)NC(=O)NCCCC(F)(F)F)s1` [Example 42, 1-{[3-(3-fluoro-4-{[2-(propan-2-yl)-1H-imidazol-1-yl]methyl}phenyl)-5-(2-methylpropyl)thiophen-2-yl]sulfonyl}-3-(4,4,4-trifluorobutyl)urea trifluoroacetic acid], the IC50 was 2.9 nM in data set [1] and 5000 nM in data set [2].
